# Data taken from article PMC11740726 (PNAS Nexus, 2025).
# Like-named read-outs stand apart in the source and are kept apart here.
# What was measured:
# TA100 = details: Salmonella typhimurium
# WP2 uvrA = details: Escherichia coli
# TA98 = details: Salmonella typhimurium
# SARS-CoV-2^WK-521 [1] = test: microbe, parasite or virus in culture; type: cell-based
# in vitro = details: African green monkey
# TA1537 = details: Salmonella typhimurium
# SARS-CoV-2^BQ.1.1 = test: microbe, parasite or virus in culture; type: cell-based; details: Severe acute respiratory syndrome coronavirus 2, read-out: SARS-CoV-2^BQ.1.1 in HeLa^hACE2-TMPRSS2 cells EC50
# [2] = system: SARS-CoV-2 Omicron XBB.1.5; test: microbe, parasite or virus in culture; type: cell-based; details: for EC50: Severe acute respiratory syndrome coronavirus 2, read-out: EC50 in the presence of 1 mg/mL human AAG
# [3] = system: SARS-CoV-2^Omicron EG.5.1; test: microbe, parasite or virus in culture; type: cell-based; details: Severe acute respiratory syndrome coronavirus 2, read-out: anti-SARS-CoV-2^Omicron EG.5.1 activity EC50 in primary human nasal epithelial (HNEp) cells
# SARS-CoV-2^WK-521 [4] = test: microbe, parasite or virus in culture; type: cell-based; details: Severe acute respiratory syndrome coronavirus 2, read-out: EC50, SARS-CoV-2^WK-521, HeLa^hACE2-TMPRSS2
# in vivo [5] = details: PXB (human liver-chimeric), mouse, po, 10 mg/kg
# SARS-CoV-2 M^pro = SARS-CoV-2 M^pro (Severe acute respiratory syndrome coronavirus 2, UniProt P0DTD1); test: SARS-CoV-2 M^pro enzyme assay (cell-free, fluorogenic substrate); type: biochemical; details: authentic M^pro; mean ± 1 SD, three assays
# human cathepsin L = human cathepsin L (Homo sapiens, UniProt P07711); test: biochemical
# Sequence of human cathepsin L (P07711 114-333): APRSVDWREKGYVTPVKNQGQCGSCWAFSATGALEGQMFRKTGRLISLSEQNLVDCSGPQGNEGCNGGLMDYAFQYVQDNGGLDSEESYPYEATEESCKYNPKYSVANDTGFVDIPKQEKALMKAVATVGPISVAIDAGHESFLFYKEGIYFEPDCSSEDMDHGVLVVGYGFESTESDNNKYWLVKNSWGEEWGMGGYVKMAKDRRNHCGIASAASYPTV
# human calpain = type: biochemical
# SARS-CoV-2^XBB1.5 = system: SARS-CoV-2^XBB1.5; parameters: species or system B6.Cg-Tg(K18-hACE2)2-Prlmn/J-transgenic mice; details: mouse, in vivo
# [6] = system: primary human nasal epithelial cells
# [7] = system: four Salmonella typhimurium strains (TA100, TA1535, TA98, TA1537) and one Escherichia coli strain (WP2 uvrA)
# in vivo [8] = details: ICR, mouse, po, 10 mg/kg
# [9] = Severe acute respiratory syndrome coronavirus 2, Vero C1008, read-out: EC50, SARS-CoV-2^WK-521, VeroE6 +2μM CP-100356
# [10] = Severe acute respiratory syndrome coronavirus 2, Vero C1008, read-out: EC50, SARS-CoV-2^WK-521, VeroE6
# [11] = Severe acute respiratory syndrome coronavirus 2, Vero C1008, read-out: SARS-CoV-2^WK-521 in VeroE6 cells EC50
# [12] = read-out: EC50 against SARS-CoV-2^WK-521 in VeroE6 cells in the presence of CP100356
compound,measurement,setting,value
"NC(=O)C(=Cc1ccc([N+](=O)[O-])o1)c1ccco1 [AF-2, 2-(2-Furyl)-3-(5-nitro-2-furyl)acrylamide]",Number of colonies / plate (positive control),TA100,29.0 ± 4. colonies / plate
same,Number of colonies / plate (positive control),WP2 uvrA,10.7± 3.1 colonies / plate
same,Number of colonies / plate (positive control),TA98,22.7 ± 3.1 colonies / plate
"Nc1ccc2cc3ccccc3cc2c1 [Compound 2AA, 2-Aminoanthracene]",Number of colonies / plate (positive control),TA1535; Salmonella typhimurium,15.3 ± 1.2 colonies / plate
same,Number of colonies / plate (positive control),WP2 uvrA,49.0± 7.9 colonies / plate
"Cn1cnc(Cn2c(=O)[nH]/c(=N\c3cc4cn(C)nc4cc3Cl)n(Cc3cc(F)c(F)cc3F)c2=O)n1 [Ensitrelvir, reference compound]",EC50,SARS-CoV-2^WK-521 [1]; [9],30 nM
same,CC50,in vitro,> 100000 nM
"COc1ccc2nc3cc(Cl)ccc3c(NCCCNCCCl)c2c1 [ICR-191, 2-Methoxy-6-chloro-9-[3-(2-chloroethyl)-aminopropylamino] acridine·2HCl]",Number of colonies / plate (positive control),TA1537,37.3± 2.5 colonies / plate
"[N-]=[N+]=[N-].[Na+] [NaN3, SodiumAzide]",Number of colonies / plate (positive control),TA1535,29.3 ± 9.1 colonies / plate
"CC(C)(C)[C@H](NC(=O)C(F)(F)F)C(=O)N1C[C@H]2[C@@H]([C@H]1C(=O)N[C@H](C#N)C[C@@H]1CCNC1=O)C2(C)C [Nirmatrelvir, reference compound]",EC50,SARS-CoV-2^WK-521 [1]; [10],1140 ± 190 nM
same,EC50,SARS-CoV-2^WK-521 [1]; [9],20 ± 10 nM
same,EC50,SARS-CoV-2^WK-521 [1]; [11],770 ± 180 nM
same,EC50,SARS-CoV-2^WK-521 [1]; [12],36.3 nM
same,EC50,SARS-CoV-2^BQ.1.1,51 ± 16 nM
same,effect of 5 mg/mL human AAG on antiviral activity,[2],further reduced the activity
same,EC50,[2],160 nM
same,EC50,[3],11100 nM
same,EC50,SARS-CoV-2^WK-521 [4],20 nM
same,half-life,in vivo [5],1.43 h
same,CC50,in vitro,> 100000 nM
CC(C)(C)[C@H](NC(=O)C(F)(F)F)C(=O)N1C[C@H]2[C@@H]([C@H]1C(=O)N[C@@H](C[C@@H]1CCNC1=O)C(=O)c1nc3c(F)cccc3s1)C2(C)C [TKB245],EC50,SARS-CoV-2^WK-521 [1]; [11],20 ± 7 nM
same,EC50,SARS-CoV-2^WK-521 [1]; [12],3.5 nM
same,intracellular concentrations in VeroE6 cells,VeroE6 cells,higher than those of nirmatrelvir
same,CC50,in vitro,> 100000 nM
CC(C)(C)[C@H](NC(=O)C(F)(F)F)C(=O)N1C[C@H]2[C@@H]([C@H]1C(=O)N[C@@H](C[C@@H]1CCNC1=O)C(=O)c1nc3cccc(F)c3s1)C2(C)C [TKB252],IC50,SARS-CoV-2 M^pro,200 ± 50 nM
same,EC50,SARS-CoV-2^WK-521 [1]; [11],62 ± 26 nM
same,EC50,SARS-CoV-2^BQ.1.1,57 ± 23 nM
same,CC50 at 3 days,in vitro,> 100000 nM
CC(C)(C)[C@H](NC(=O)C(F)(F)F)C(=O)N1C[C@H]2[C@@H]([C@H]1C(=O)N[C@@H](C[C@@H]1CCNC1=O)C(=O)c1nc3cc(F)ccc3s1)C2(C)C [TKB272],EC50,SARS-CoV-2^WK-521 [1]; [10],15.8 ± 8.9 nM
same,EC50,SARS-CoV-2^WK-521 [1]; [9],1 ± 1 nM
same,EC50,SARS-CoV-2^WK-521 [1]; [11],7 ± 1 nM
same,EC50,SARS-CoV-2^WK-521 [1]; [12],0.4 nM
same,EC50,SARS-CoV-2^BQ.1.1,2.6 ± 1 nM
same,effect of 5 mg/mL human AAG on antiviral activity,[2],further reduced the activity
same,EC50,[2],30 nM
same,EC50,[3],31 nM
same,EC50,SARS-CoV-2^WK-521 [4],2.9 nM
same,IC50,human cathepsin L,> 16000 nM
same,inhibition of human cathepsin L (target specificity),human cathepsin L,"none of the human cysteine enzymes, cathepsin L or calpain, were appreciably inhibited"
same,IC50,human calpain,> 2000 nM
same,inhibition of human calpain (target specificity),human calpain,"none of the human cysteine enzymes, cathepsin L or calpain, were appreciably inhibited"
same,Lungs Virus titer,SARS-CoV-2^XBB1.5,5.1 Log10(PFU/g)
same,Nasal turbinates Virus titer,SARS-CoV-2^XBB1.5,3.2 Log10(PFU/g)
same,intracellular concentrations in VeroE6 cells,VeroE6 cells,higher than those of nirmatrelvir
same,intracellular concentrations in HeLa^hACE2-TMPRSS2 cells,HeLa^hACE2-TMPRSS2 cells,greater than those of nirmatrelvir
same,intracellular concentrations in human primary nasal epithelial cells,[6],comparable to nirmatrelvir
same,genotoxicity in the micro-Ames test,[7],no apparent genotoxicity
same,growth inhibition of bacterial strains in µAmes test,[7],did not inhibit the growth of bacterial strains employed
same,increase of revertant colonies compared with negative control in µAmes test,[7],did not increase the number of revertant colonies more than twice
same,half-life,in vivo [5],3.12 h
same,half-life,in vivo [8],3.37 h
same,CC50,in vitro,98000 ± 2100 nM
CC(C)(C)[C@H](NC(=O)C(F)(F)F)C(=O)N1C[C@H]2[C@@H]([C@H]1C(=O)N[C@@H](C[C@@H]1CCNC1=O)C(=O)c1nc3ccc(F)cc3s1)C2(C)C [TKB273],IC50,SARS-CoV-2 M^pro,8.9 ± 4.1 nM
same,EC50,SARS-CoV-2^WK-521 [1]; [11],43 ± 24 nM
same,EC50,SARS-CoV-2^BQ.1.1,114 ± 93 nM
same,CC50 at 3 days,in vitro,> 100000 nM
"CC(C)C(=O)OC[C@H]1O[C@@H](n2ccc(NO)nc2=O)[C@H](O)[C@@H]1O [molnupiravir, reference compound]",EC50,SARS-CoV-2^WK-521 [1]; [9],840 nM
Nirmatrelvir + Ritonavir,Lungs Virus titer,SARS-CoV-2^XBB1.5,5.2 Log10(PFU/g)
same,Nasal turbinates Virus titer,SARS-CoV-2^XBB1.5,2.4 Log10(PFU/g)
